From ChEMBL document CHEMBL3808384, “Synthesis of new tricyclic thiolactams as potent antitumor agent for pancreatic cancer” (Bioorg Med Chem Lett, 2016) come the findings set out here.

Data set [1] can be described thus: Cytotoxicity against human PANC1 cells cultured in dulbecco's modified eagle's medium. It is filed as functional, PANC-1.
A short description of data set [2]: Cytotoxicity against human PANC1 cells at 30 uM cultured in nutrient-deprived medium. The format is functional. Particulars: PANC-1.
Data set [3] in a line: Cytotoxicity against human PANC1 cells cultured in nutrient-deprived medium. The format is functional, PANC-1.
Data set [4] can be described thus: Cytotoxicity against human PANC1 cells at 30 uM cultured in dulbecco's modified eagle's medium. It is filed as functional. Particulars: PANC-1.
Data set [5] in a line: Antitumor activity against human MIAPaCa2 cells xenografted in BALB/cAJcl-nu/nu mouse assessed as reduction in tumor volume at 8.02 mg/kg, ip measured every fourth day relative to control. It is filed as functional, MIA PaCa-2. On the technique in general: A xenograft is tissue or cells of one species grown in another, often human tumour cells in immunodeficient mice.
The test system of data set [6] is Mus musculus. Briefly: Toxicity in BALB/cAJcl-nu/nu mouse xenografted with human MIAPaCa2 cells assessed as body weight loss at 8.02 mg/kg, ip measured every fifth day. Particulars: in vivo. It is filed as organism-based, MIA PaCa-2.
Data set [7] is described as follows: Antitumor activity against human MIAPaCa2 cells xenografted in BALB/cAJcl-nu/nu mouse assessed as tumor volume at 8.02 mg/kg, ip measured every fourth day (reference value: 1917.6 +/- 280.3 mm3). The format is functional, MIA PaCa-2.
Data set [8] is described as follows: Antitumor activity against human MIAPaCa2 cells xenografted in BALB/cAJcl-nu/nu mouse assessed as tumor volume at 7.5 mg/kg, ip measured every fourth day (reference value: 1917.6 +/- 280.3 mm3). It is filed as functional, MIA PaCa-2.
Data set [9] has as its system Mus musculus. The data set can be described thus: Toxicity in BALB/cAJcl-nu/nu mouse xenografted with human MIAPaCa2 cells assessed as body weight loss at 7.5 mg/kg, ip measured every fifth day. It is filed as organism-based, MIA PaCa-2. Particulars: in vivo.
The nature of data set [10]: Antitumor activity against human MIAPaCa2 cells xenografted in BALB/cAJcl-nu/nu mouse assessed as reduction in tumor volume at 7.5 mg/kg, ip measured every fourth day relative to control. It is filed as functional, MIA PaCa-2.

Usually inhibition stands for the relative decrease from the control value, in per cent. A high value points to strong suppression.

As to `Fc1ccc(Cn2c3c(c4ccccc42)CCN(Cc2ccccc2)C3=S)cc1`, in data set [1], the PC50 is 152.6 µM. Besides, the inhibition at 30 µM in data set [2] is under 50%.

In the case of `COc1cc(O)cc(Cn2c3c(c4ccccc42)CCN(Cc2ccccc2)C3=S)c1`, the PC50 in [3] was 4.2 µM. The inhibition at 30 µM in [4] is under 50%.

Regarding `S=C1c2c(c3ccccc3n2Cc2ccccc2)CCN1Cc1ccccc1`, the inhibition at 30 µM in data set [4] and in data set [2] was under 50% in each case.

Consider `O=C1OCCc2c1n(Cc1cccc(O)c1)c1ccccc21`, for which the PC50 in [3] came to 131.7 µM.

In turn, `Oc1cc(O)cc(Cn2c3c(c4ccccc42)CCN(Cc2ccccc2)C3=S)c1` gave a PC50 in data set [3] of 4.81 µM. Moreover, the inhibition at 30 µM in data set [4] is under 50%.

Regarding `COc1cc(Cn2c3c(c4ccccc42)CCN(Cc2ccccc2)C3=S)ccc1O`, the PC50 in data set [1] is 8.15 µM; in data set [3], 2.54 µM.

In turn, `Oc1cccc(Cn2c3c(c4ccccc42)CCN(Cc2ccccc2)C3=S)c1` had a PC50 in data set [3] of 1.96 µM. Moreover, the “fold change (FC)” value in data set [5] stood at 1.6. Further, the Activity result in the data set on Mus musculus [6] is given as “Non-toxic”; in data set [7] it was 1203.9 mm3. For the same molecule, the inhibition at 30 µM in data set [4] was under 50%.

As to `Oc1ccc(Cn2c3c(c4ccccc42)CCN(Cc2ccccc2)C3=S)cc1`, the PC50 in data set [1] was 20 µM; in data set [3] it was 1.68 µM.

In [3], `O=C1c2c(c3ccccc3n2Cc2cccc(O)c2)CCN1Cc1ccccc1` yielded a PC50 of 44.8 µM.

As for `COc1ccc(Cn2c3c(c4ccccc42)CCN(Cc2ccccc2)C3=S)cc1`, the inhibition at 30 µM in data set [4] and in data set [2] was under 50% each time.

With `COc1ccc(Cn2c3c(c4ccccc42)CCN(Cc2ccccc2)C3=S)cc1O`, in [3], the PC50 is 7.07 µM. Also, the inhibition at 30 µM in [4] is under 50%.

Molecule `Oc1ccc(Cn2c3c(c4ccccc42)CCN(Cc2ccccc2)C3=S)cc1O` had a PC50 in data set [3] of 4.56 µM. The molecule further gave an inhibition at 30 µM in data set [4] of under 50%.

Molecule `Oc1ccccc1Cn1c2c(c3ccccc31)CCN(Cc1ccccc1)C2=S` yielded a PC50 in data set [3] of 2.23 µM. The molecule also returned an inhibition at 30 µM in [4] of under 50%.

`COc1cc(C[C@H]2C(=O)OC[C@@H]2Cc2ccc(OC)c(OC)c2)ccc1O` [ARCTIGENIN] gave a PC50 in [3] of 1.27 µM. In addition, the figures for the Activity (in data set [8]; in the data set with Mus musculus [9]) were 856.8 mm3 and “Non-toxic”, respectively. This molecule yielded an inhibition at 30 µM in [4] of under 50%. For the same molecule, the “fold change (FC)” value in data set [10] was 2.2.

Molecule `Oc1cccc(Cn2ccc3ccccc32)c1` displayed a PC50 in data set [3] of 173.7 µM.

In the case of `S=C1c2c(c3ccccc3n2Cc2ccc(Cl)cc2)CCN1Cc1ccccc1`, the inhibition at 30 µM in data set [4] and in data set [2] was under 50% in each case.
